Where two headings read alike, the source gives them in different places.

The target in test [1] is T1, beta-catenin/TCF4 engagement (Homo sapiens, UniProt P35222).
T1 construct: expressed in transfected cells; host or cells: HEK293
T1 sequence (P35222 1-781): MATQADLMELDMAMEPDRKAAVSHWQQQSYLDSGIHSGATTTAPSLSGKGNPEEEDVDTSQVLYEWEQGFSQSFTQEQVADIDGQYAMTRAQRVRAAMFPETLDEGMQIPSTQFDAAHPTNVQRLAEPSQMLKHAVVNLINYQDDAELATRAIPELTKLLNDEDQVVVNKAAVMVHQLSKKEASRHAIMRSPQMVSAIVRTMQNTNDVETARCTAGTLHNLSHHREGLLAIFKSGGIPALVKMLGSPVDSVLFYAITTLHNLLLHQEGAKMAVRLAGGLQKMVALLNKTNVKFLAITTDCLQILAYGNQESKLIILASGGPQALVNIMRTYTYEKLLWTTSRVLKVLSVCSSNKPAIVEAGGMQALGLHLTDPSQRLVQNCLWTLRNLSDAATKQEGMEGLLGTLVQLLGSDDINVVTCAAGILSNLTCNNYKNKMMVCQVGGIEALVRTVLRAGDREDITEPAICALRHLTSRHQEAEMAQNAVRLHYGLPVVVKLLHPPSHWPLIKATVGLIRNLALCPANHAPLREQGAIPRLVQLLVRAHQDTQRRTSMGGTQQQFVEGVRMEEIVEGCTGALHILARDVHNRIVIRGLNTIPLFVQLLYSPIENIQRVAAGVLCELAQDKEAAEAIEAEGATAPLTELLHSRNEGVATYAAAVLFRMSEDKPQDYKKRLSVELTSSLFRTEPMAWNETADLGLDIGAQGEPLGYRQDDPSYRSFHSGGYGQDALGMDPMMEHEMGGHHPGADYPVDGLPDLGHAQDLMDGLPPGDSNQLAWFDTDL
The test is described as follows: Nano-BRET target engagement assay (B-cat-Halo & TCF4-Luc in HEK293 cells). In kind it is cell-based. The following applies: read-out: NanoBRET Abs IC50. For orientation: Bioluminescence resonance energy transfer reports proximity on the nanometre scale.

Test [2] addresses T2, full-length beta-Catenin (Uniprot ID P35222) (Homo sapiens, UniProt P35222).
T2 construct: 10 nM full-length beta-Catenin (Uniprot ID P35222)
T2 sequence (P35222 1-781): T1 sequence (P35222 1-781)
Description: Fluorescence polarization IC50 (beta-catenin / 5FAM-TCF4 10-53 competition). In kind it is binding. The following applies: fluorescence polarization; read-out: beta-Catenin FP IC50.

Test [3] deals with TCF/LEF luciferase Reporter in DLD1 cells. The test is described as follows: TCF reporter assay (DLD1 TCF/LEF luciferase reporter, Bright-Glo). It counts as cell-based. Conditions: read-out: DLD1 4% Abs IC50. The method, boiled down: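 DLD1 cells stably carrying a TCF/LEF luciferase reporter were plated at 5000 cells/well in RPMI + 4% FBS and treated overnight with a 1:2 compound dilution series. Bright-Glo luminescence read on day 3; viability by CellTiter-Glo. Absolute IC50 determined.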

Setting [4] is: DLD1 reporter assay, 4%, absolute IC50.

A word on the IC50: it is the point on the concentration scale where inhibition reaches its midpoint. As to `CC(=O)N1CCC[C@]12CC=CCCCC1(CCCC=CCCCOC(=O)N3CC[C@@](C(=O)N[C@@H](Cc4ccccc4Cl)C(=O)N[C@@H](Cc4csc5ccccc45)C(=O)N[C@@H](CCC(N)=O)C(N)=O)(C3)NC(=O)[C@H](CC(C)C)NC(=O)[C@H](Cc3ccccc3)NC(=O)[C@H](C)NC(=O)CNC(=O)[C@H](Cc3cccc(C(=O)O)c3)NC(=O)[C@H](CC(=O)O)NC1=O)NC(=O)[C@H](CC(C)(C)C)NC(=O)[C@H](CC(=O)O)NC2=O` (stereo partly drawn) [I-1684, Ac-PL3-Asp-Npg-B5-Asp-3COOHF-Gly-Ala-Phe-Leu-PyrS2-2C1F-BztA-Gln-NH2], the IC50 stood at 4.5 µM in test [1] (absolute IC50), 0.013 µM in test [2] and 3.4 µM in test [3] (setting [4]).
As for `CCCC[C@@H]1NC(=O)[C@H](Cc2cccc(C(=O)O)c2)NC(=O)[C@H](CC(=O)O)NC(=O)C2(CCCC=CCCCOC(=O)N3CC[C@@](C(=O)N[C@@H](Cc4ccccc4Cl)C(=O)N[C@@H](Cc4csc5ccccc45)C(=O)N[C@@H](CCC(N)=O)C(N)=O)(C3)NC(=O)[C@H](CC(C)C)NC(=O)[C@H](Cc3ccccc3)NC(=O)[C@H](C)NC1=O)CCCC=CC[C@]1(CCCN1C(C)=O)C(=O)N[C@@H](CC(=O)O)C(=O)N[C@@H](CC(C)(C)C)C(=O)N2` (stereo partly drawn) [I-1685, Ac-PL3-Asp-Npg-B5-Asp-3COOHF-nLeu-Ala-Phe-Leu-PyrS2-2C1F-BztA-Gln-NH2], the values for the IC50 in test [1] (absolute IC50), in test [2] and in test [3] (setting [4]) were 3.5 µM, 0.023 µM and 1.3 µM, respectively.
Turning to `CC(=O)N1CCC[C@]12CC=CCCCC1(CCCC=CCCCOC(=O)N3CC[C@@](C(=O)N[C@@H](Cc4ccsc4)C(=O)N[C@@H](Cc4csc5ccccc45)C(=O)N[C@H](C(N)=O)[C@@H](C)O)(C3)NC(=O)[C@H](CC(C)C)NC(=O)[C@H](Cc3ccccc3)NC(=O)[C@H](C)NC(=O)[C@H](C)NC(=O)[C@H](CN(CC(=O)O)CC(F)(F)F)NC(=O)[C@H](CC(=O)O)NC1=O)NC(=O)[C@H](CC(C)(C)C)NC(=O)[C@H](CC(=O)O)NC2=O` (stereo partly drawn) [I-1706, Ac-PL3-Asp-Npg-B5-Asp-TfeGA-Ala-Ala-Phe-Leu-PyrS2-3Thi-BztA-Thr-NH2], the IC50 is 4.8 µM in test [1] (absolute IC50), 0.024 µM in test [2] and 2.7 µM in test [3] (setting [4]).
For `CC(=O)NCCCC[C@H](NC(=O)[C@H](Cc1csc2ccccc12)NC(=O)[C@H](Cc1ccsc1)NC(=O)[C@]12CCN(C1)C(=O)OCCCC=CCCCC1(CCCC=CC[C@]3(CCCN3C(C)=O)C(=O)N[C@@H](CC(=O)O)C(=O)N[C@@H](CC(C)(C)C)C(=O)N1)C(=O)N[C@@H](CC(=O)O)C(=O)N[C@@H](CN(CC(=O)O)CC(F)(F)F)C(=O)N[C@@H](C)C(=O)N[C@@H](C)C(=O)N[C@@H](Cc1ccccc1)C(=O)N[C@@H](CC(C)C)C(=O)N2)C(N)=O` (stereo partly drawn) [I-1709, Ac-PL3-Asp-Npg-B5-Asp-TfeGA-Ala-Ala-Phe-Leu-PyrS2-3Thi-BztA-AcLys-NH2] the same measures were 6.2 µM, 0.014 µM and 3.9 µM.
In the same order, the values of `CC(=O)N1CCC[C@]12CC=CCCCC1(CCCC=CCCCOC(=O)N3CC[C@@](C(=O)N[C@@H](Cc4ccsc4)C(=O)N[C@@H](Cc4csc5ccccc45)C(=O)N[C@@H](C)C(N)=O)(C3)NC(=O)[C@H](CC(C)C)NC(=O)[C@H](Cc3ccccc3)NC(=O)[C@H](C)NC(=O)[C@H](C)NC(=O)[C@H](CN(CC(=O)O)CC(F)(F)F)NC(=O)[C@H](CC(=O)O)NC1=O)NC(=O)[C@H](CC(C)(C)C)NC(=O)[C@H](CC(=O)O)NC2=O` (stereo partly drawn) [I-1710, Ac-PL3-Asp-Npg-B5-Asp-TfeGA-Ala-Ala-Phe-Leu-PyrS2-3Thi-BztA-Ala-NH2] are 3.9 µM, 0.022 µM and 1.9 µM.
For `CC(=O)N1CCC[C@]12CC=CCCCC1(CCCC=CCCCOC(=O)N3CC[C@@](C(=O)N[C@@H](Cc4ccsc4)C(=O)N[C@@H](Cc4csc5ccccc45)C(=O)N[C@@H](C)C(N)=O)(C3)NC(=O)[C@H](CC(C)C)NC(=O)[C@H](Cc3ccccc3)NC(=O)[C@H](C)NC(=O)[C@H](CCC(N)=O)NC(=O)[C@H](Cc3cccc(C(=O)O)c3)NC(=O)[C@H](CC(=O)O)NC1=O)NC(=O)[C@H](CC(C)(C)C)NC(=O)[C@H](CC(=O)O)NC2=O` (stereo partly drawn) [I-1918, Ac-PL3-Asp-Npg-B5-Asp-3COOHF-Gln-Ala-Phe-Leu-PyrS2-3Thi-BztA-Ala-NH2], the values for the IC50 in test [1], in test [2] and in test [3] (DLD1 4%) were 4 µM, 0.005 µM and 6.5 µM, respectively.
In the same order, the values of `CC(=O)N1CCC[C@]12CC=CCCCC1(CCCC=CCCCOC(=O)N3CC[C@@](C(=O)N[C@@H](Cc4ccsc4)C(=O)N[C@@H](Cc4csc5ccccc45)C(=O)N[C@@H](C)C(N)=O)(C3)NC(=O)[C@H](CC(C)C)NC(=O)[C@H](Cc3ccccc3)NC(=O)[C@H](C)NC(=O)C(C)(C)NC(=O)[C@H](Cc3cccc(C(=O)O)c3)NC(=O)[C@H](CC(=O)O)NC1=O)NC(=O)[C@H](CC(C)(C)C)NC(=O)[C@H](CC(=O)O)NC2=O` (stereo partly drawn) [I-1920, Ac-PL3-Asp-Npg-B5-Asp-3COOHF-Aib-Ala-Phe-Leu-PyrS2-3Thi-BztA-Ala-NH2] are 3.1 µM, 0.018 µM and 1.2 µM.
For `CC(=O)N1CCC[C@]12CC=CCCCC1(CCCC=CCCCOC(=O)N3CC[C@@](C(=O)N[C@@H](Cc4ccsc4)C(=O)N[C@@H](Cc4csc5ccccc45)C(=O)N[C@@H](CC(N)=O)C(=O)N[C@@H](C)C(=O)N[C@@H](C)C(=O)N[C@H](C)C(N)=O)(C3)NC(=O)[C@H](CC(C)C)NC(=O)[C@H](Cc3ccccc3)NC(=O)[C@H](C)NC(=O)[C@H](C)NC(=O)[C@H](Cc3cccc(C(=O)O)c3)NC(=O)[C@H](CC(=O)O)NC1=O)NC(=O)[C@H](CC(C)(C)C)NC(=O)[C@H](CC(=O)O)NC2=O` (stereo partly drawn) [I-2047, Ac-PL3-Asp-Npg-B5-Asp-3COOHF-Ala-Ala-Phe-Leu-PyrS2-3Thi-BztA-Asn-Ala-Ala-dAla-NH2] the same measures were 2.6 µM, 0.011 µM and 1.3 µM.
Regarding `CC(=O)N1CCC[C@]12CC=CCCCC1(CCCC=CCCCOC(=O)N3CC[C@@](C(=O)N[C@@H](Cc4ccsc4)C(=O)N[C@@H](Cc4csc5ccccc45)C(=O)N[C@@H](CCS(C)(=O)=O)C(N)=O)(C3)NC(=O)[C@H](CC(C)C)NC(=O)[C@H](Cc3ccccc3)NC(=O)[C@H](C)NC(=O)[C@H](C)NC(=O)[C@H](Cc3cccc(C(=O)O)c3)NC(=O)[C@H](CC(=O)O)NC1=O)NC(=O)[C@H](CC(C)(C)C)NC(=O)[C@H](CC(=O)O)NC2=O` (stereo partly drawn) [I-2061, Ac-PL3-Asp-Npg-B5-Asp-3COOHF-Ala-Ala-Phe-Leu-PyrS2-3Thi-BztA-Met2O-NH2], the figures for the IC50 in test [1], in test [2] and in test [3] (DLD1 4%) were 1.9 µM, 0.013 µM and 1.8 µM, respectively.
On to `CC(=O)N1CCC[C@]12CC=CCCCC1(CCCC=CCCCOC(=O)N3CC[C@@](C(=O)N[C@@H](Cc4ccsc4)C(=O)N[C@@H](Cc4csc5ccccc45)C(=O)N[C@@H](CCC(N)=O)C(N)=O)(C3)NC(=O)[C@H](CC(C)C)NC(=O)[C@H](Cc3ccccc3)NC(=O)[C@H](C)NC(=O)[C@H](C)NC(=O)[C@H](CCn3cc(CC(C)(C)C(=O)O)nn3)NC(=O)[C@H](CC(=O)O)NC1=O)NC(=O)[C@H](CC(C)(C)C)NC(=O)[C@H](CC(=O)O)NC2=O` (stereo partly drawn) [I-2077, Ac-PL3-Asp-Npg-B5-Asp-[CH2CMe2CO2H]TriAzDab-Ala-Ala-Phe-Leu-PyrS2-3Thi-BztA-Gln-NH2], for which the IC50 in test [1] was found to be 12.3 µM; in test [2] it was 0.009 µM; in test [3] (DLD1 4%), 5.8 µM.
On to `CC(=O)N1CCC[C@]12CC=CCCCC1(CCCC=CCCCOC(=O)N3CC[C@@](C(=O)N[C@@H](Cc4ccsc4)C(=O)N[C@@H](Cc4csc5ccccc45)C(=O)N[C@@H](CCC(N)=O)C(N)=O)(C3)NC(=O)[C@H](CC(C)C)NC(=O)[C@H](Cc3ccccc3)NC(=O)[C@H](C)NC(=O)[C@H](C)NC(=O)[C@H](Cn3cc(CC(=O)O)nn3)NC(=O)[C@H](CC(=O)O)NC1=O)NC(=O)[C@H](CC(C)(C)C)NC(=O)[C@H](CC(=O)O)NC2=O` (stereo partly drawn) [I-2084, Ac-PL3-Asp-Npg-B5-Asp-[CH2CO2H]TriAzDap-Ala-Ala-Phe-Leu-PyrS2-3Thi-BztA-Gln-NH2], for which the IC50 came out at 9.2 µM in test [1], 0.005 µM in test [2] and 9.7 µM in test [3] (DLD1 4%).

The values are drawn from patent US20240116985A1, “STAPLED PEPTIDES AND METHODS THEREOF” (priority 2020, published 2024).
